Assays:
Assay in all cases: concentration in plasma after dosing
Rat [1] = details: dosed: Glyoxylic acid monohydrate, 50 mg/kg, iv, Female, Harlan Sprague Dawley
Rat [2] = details: 11 min; dosed: Glyoxylic acid monohydrate; 50 mg/kg; iv; Female; Harlan Sprague Dawley
Rat [3] = details: dosed: Glyoxylic acid monohydrate, 50 mg/kg, iv, Female, Harlan Sprague Dawley; remark: listed apart in the source
Rat [4] = details: 11 min; dosed: Glyoxylic acid monohydrate; 50 mg/kg; iv; Female; Harlan Sprague Dawley; remark: listed apart in the source
Rat [5] = details: dosed: Glyoxylic acid monohydrate, 50 mg/kg, iv, Female, Harlan Sprague Dawley; remark: listed apart in the source
Rat [6] = details: dosed: Glyoxylic acid monohydrate, 50 mg/kg, iv, Harlan Sprague Dawley
Rat [7] = details: dosed: Glyoxylic acid monohydrate, 50 mg/kg, iv, Female, Harlan Sprague Dawley; remark: listed apart in the source
Rat [8] = details: dosed: Glyoxylic acid monohydrate, 50 mg/kg, iv, Female, Harlan Sprague Dawley; remark: listed apart in the source
Rat [9] = details: dosed: Glyoxylic acid monohydrate, 50 mg/kg, iv, Female, Harlan Sprague Dawley; remark: listed apart in the source
Rat [10] = details: dosed: Glyoxylic acid monohydrate, 50 mg/kg, iv, Female, Harlan Sprague Dawley; remark: listed apart in the source
Rat [11] = details: dosed: Glyoxylic acid monohydrate, 50 mg/kg, iv, Female, Harlan Sprague Dawley; remark: listed apart in the source
Rat [12] = details: dosed: Glyoxylic acid monohydrate, 50 mg/kg, iv, Male, Harlan Sprague Dawley
Rat [13] = details: dosed: Glyoxylic acid monohydrate, 50 mg/kg, iv, Male, Harlan Sprague Dawley; remark: listed apart in the source
Rat [14] = details: 14 min; dosed: Glyoxylic acid monohydrate; 50 mg/kg; iv; Male; Harlan Sprague Dawley
Rat [15] = details: dosed: Glyoxylic acid monohydrate, 50 mg/kg, iv, Female, Harlan Sprague Dawley; remark: listed apart in the source
Rat [16] = details: dosed: Glyoxylic acid monohydrate, 50 mg/kg, iv, Male, Harlan Sprague Dawley; remark: listed apart in the source
Rat [17] = details: 14 min; dosed: Glyoxylic acid monohydrate; 50 mg/kg; iv; Female; Harlan Sprague Dawley
Rat [18] = details: dosed: Glyoxylic acid monohydrate, 50 mg/kg, iv, Female, Harlan Sprague Dawley; remark: listed apart in the source
Rat [19] = details: dosed: Glyoxylic acid monohydrate, 50 mg/kg, iv, Female, Harlan Sprague Dawley; remark: listed apart in the source
Rat [20] = details: dosed: Glyoxylic acid monohydrate, 50 mg/kg, iv, Female, Harlan Sprague Dawley; remark: listed apart in the source

O.O=CC(=O)O [Glyoxylic acid monohydrate]
Details	concentration in plasma [ng/mL]
Rat [1], 0.5 h	2820
Rat [1], 8 min	16900
Rat [3], 5 min	27700
Rat [3], 22 min	3860
Rat [5], 8 min	15800
Rat [5], 22 min	3900
Rat [7], 0.5 h	2850
Rat [7], 8 min	15800
Rat [8], 0.5 h	3360
Rat [8], 8 min	14700
Rat [9], 0.3 h	3380
Rat [9], 2 min	70100
Rat [10], 0.5 h	3380
Rat [10], 11 min	12000
Rat [11], 0.3 h	5270
Rat [11], 5 min	26200
Rat [12], 0.3 h	5910
Rat [12], 2 min	92900
Rat [13], 2 min	66100
Rat [13], 14 min	5250
Rat [15], 5 min	28600
Rat [15], 22 min	3840
Rat [16], 0.3 h	6320
Rat [16], 5 min	34200
Rat [18], 8 min	17400
Rat [18], 22 min	4560
Rat [19], 2 min	99000
Rat [19], 14 min	6240
Rat [20], 0.5 h	2690
Rat [20], 11 min	10700

Details	concentration in plasma [ng/mL]
Rat [2]	9560
Rat [4]	11600
Rat [14]	7680
Rat [17]	8370

concentration in plasma [ng/mL], Rat [6]
Details	0.3 h	2 min	5 min	8 min	11 min	14 min	22 min
Female	4380	102000	24000	10100	11300	8040	3600
Male	4850	63200	29800	–	9000	8390	4090
